The subject of assay [1] is H3K27 methylation in G401 cell. Briefly: ELISA (H3K27 methylation) assay in G401 cells. The conditions noted are these: Homo sapiens, G-401, H3K27 methylation ELISA, read-out: (c) IC50 ELISA Qualified. It is filed as cell-based, human. Put shortly:
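IC50 from dose-response fit of percent inhibition relative to DMSO, using H3K27me3/me2 ELISA signal (ECL) normalized to histone H3. Histones HCl-extracted after 48 h compound exposure of G401 cells at up to 20 μM, 8- or 12-point 3-fold series.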
A general note: An ELISA detects its analyte on a solid surface through an enzyme-linked reagent.

The target in assay [2] is wild type PRC2 (wtPRC2) complex (Homo sapiens, UniProt O75530). Kind of assay: EED LC-MS assay (SAH production by PRC2). The following applies: PRC2 LC-MS assay; read-out: (b) IC50 EED LC-MS Qualified. It is filed as biochemical. The procedure, abridged: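 LC-MS/MS readout of SAH (d4-SAH standard) after TFA quench gives PRC2 activity, normalized to controls and fitted to dose-response for IC50. Reaction: 12 nM EZH2/SUZ12/EED/Rbap48/AEBP complex, 1 μM SAM, 1.5 μM H3[21-44] peptide, 120 min rt, 20 min compound preincubation.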

For another assay, the target named is T1, EED (1-441)-His protein (Homo sapiens, UniProt O75530).
T1 construct: 30 nM EED (1-441)-His protein
Kind of assay: EED-H3K27Me3 peptide competition binding assay by AlphaScreen. The conditions noted are these: EED-H3K27Me3 peptide competition, AlphaScreen; read-out: (a) IC50 EED Alphascreen binding Qualified. Put shortly:
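Serially diluted compound (12 points, 3-fold) incubated 20 min with 30 nM EED(1-441)-His and 15 nM biotin-H3K27Me3(19-33) peptide in 25 mM HEPES pH 8, 0.02% Tween-20, 0.5% BSA. Ni-chelate acceptor/streptavidin donor beads (10 μg/mL each) added, 1 h rt dark; 615 nm emission normalized to controls, dose-response fit for IC50.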

wild type PRC2 (wtPRC2) complex, sequence (O75530 whole entry): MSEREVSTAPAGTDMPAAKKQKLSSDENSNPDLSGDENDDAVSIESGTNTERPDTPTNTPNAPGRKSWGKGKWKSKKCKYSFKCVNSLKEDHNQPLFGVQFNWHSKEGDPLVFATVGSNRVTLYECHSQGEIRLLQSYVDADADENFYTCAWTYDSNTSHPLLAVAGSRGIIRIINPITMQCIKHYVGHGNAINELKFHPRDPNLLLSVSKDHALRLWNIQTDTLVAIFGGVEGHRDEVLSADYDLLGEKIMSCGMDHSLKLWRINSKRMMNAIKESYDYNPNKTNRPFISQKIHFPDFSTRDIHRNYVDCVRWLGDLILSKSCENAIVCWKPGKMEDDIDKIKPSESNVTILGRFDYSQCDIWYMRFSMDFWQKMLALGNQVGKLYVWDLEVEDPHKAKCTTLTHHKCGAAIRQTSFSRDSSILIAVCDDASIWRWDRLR
wild type PRC2 (wtPRC2) complex, sequence (Q15910 whole entry partner): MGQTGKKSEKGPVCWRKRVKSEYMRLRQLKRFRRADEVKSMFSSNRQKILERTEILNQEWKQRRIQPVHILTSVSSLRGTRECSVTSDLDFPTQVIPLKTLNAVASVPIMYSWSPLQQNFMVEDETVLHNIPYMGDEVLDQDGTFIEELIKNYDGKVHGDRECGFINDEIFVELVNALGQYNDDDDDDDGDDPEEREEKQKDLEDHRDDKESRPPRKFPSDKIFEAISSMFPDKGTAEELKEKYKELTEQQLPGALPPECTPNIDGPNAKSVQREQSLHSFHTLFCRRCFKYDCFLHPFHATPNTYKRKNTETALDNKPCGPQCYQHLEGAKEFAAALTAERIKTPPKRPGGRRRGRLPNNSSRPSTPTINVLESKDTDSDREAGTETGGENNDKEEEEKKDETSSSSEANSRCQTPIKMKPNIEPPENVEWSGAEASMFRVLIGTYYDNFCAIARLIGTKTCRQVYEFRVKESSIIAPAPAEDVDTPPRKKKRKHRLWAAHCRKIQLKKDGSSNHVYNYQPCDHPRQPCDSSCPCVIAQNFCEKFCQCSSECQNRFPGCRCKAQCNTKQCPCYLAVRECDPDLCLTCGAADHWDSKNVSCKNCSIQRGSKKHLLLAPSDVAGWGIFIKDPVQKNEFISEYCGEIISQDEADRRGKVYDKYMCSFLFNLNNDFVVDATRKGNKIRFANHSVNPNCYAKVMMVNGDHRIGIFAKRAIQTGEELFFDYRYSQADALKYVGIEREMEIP
wild type PRC2 (wtPRC2) complex, sequence (Q15022 whole entry partner): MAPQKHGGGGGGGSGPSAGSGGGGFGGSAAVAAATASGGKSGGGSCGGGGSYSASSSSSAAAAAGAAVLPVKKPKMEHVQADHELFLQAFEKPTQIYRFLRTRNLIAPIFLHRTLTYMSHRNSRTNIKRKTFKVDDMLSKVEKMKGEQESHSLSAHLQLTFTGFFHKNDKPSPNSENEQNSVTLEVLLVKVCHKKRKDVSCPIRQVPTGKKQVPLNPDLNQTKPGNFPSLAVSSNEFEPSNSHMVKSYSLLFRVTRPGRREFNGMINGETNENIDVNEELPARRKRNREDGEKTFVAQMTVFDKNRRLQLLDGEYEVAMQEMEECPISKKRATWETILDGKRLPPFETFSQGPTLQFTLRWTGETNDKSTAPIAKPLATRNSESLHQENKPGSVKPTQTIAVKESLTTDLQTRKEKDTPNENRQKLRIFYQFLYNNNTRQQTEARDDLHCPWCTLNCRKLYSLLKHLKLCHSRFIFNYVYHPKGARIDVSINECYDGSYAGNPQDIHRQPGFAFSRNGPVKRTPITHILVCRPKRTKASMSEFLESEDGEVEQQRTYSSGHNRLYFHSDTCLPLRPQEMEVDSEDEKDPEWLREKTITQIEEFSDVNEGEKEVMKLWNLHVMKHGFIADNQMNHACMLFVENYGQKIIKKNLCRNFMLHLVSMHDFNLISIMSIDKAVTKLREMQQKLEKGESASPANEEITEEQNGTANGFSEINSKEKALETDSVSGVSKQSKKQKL
wild type PRC2 (wtPRC2) complex, sequence (Q09028 whole entry partner): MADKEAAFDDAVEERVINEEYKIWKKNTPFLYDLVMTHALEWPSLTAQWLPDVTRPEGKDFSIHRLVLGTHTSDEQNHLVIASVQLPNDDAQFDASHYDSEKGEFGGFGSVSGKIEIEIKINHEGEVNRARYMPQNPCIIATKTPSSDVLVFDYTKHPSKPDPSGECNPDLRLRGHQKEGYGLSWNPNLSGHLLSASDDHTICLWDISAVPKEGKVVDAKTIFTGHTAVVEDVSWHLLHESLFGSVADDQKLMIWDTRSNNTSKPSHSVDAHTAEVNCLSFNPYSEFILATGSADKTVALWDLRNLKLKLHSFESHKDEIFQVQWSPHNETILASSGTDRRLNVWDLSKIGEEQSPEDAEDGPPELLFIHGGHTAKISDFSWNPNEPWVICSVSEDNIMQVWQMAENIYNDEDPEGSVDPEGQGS
wild type PRC2 (wtPRC2) complex, sequence (Q6ZN18 whole entry partner): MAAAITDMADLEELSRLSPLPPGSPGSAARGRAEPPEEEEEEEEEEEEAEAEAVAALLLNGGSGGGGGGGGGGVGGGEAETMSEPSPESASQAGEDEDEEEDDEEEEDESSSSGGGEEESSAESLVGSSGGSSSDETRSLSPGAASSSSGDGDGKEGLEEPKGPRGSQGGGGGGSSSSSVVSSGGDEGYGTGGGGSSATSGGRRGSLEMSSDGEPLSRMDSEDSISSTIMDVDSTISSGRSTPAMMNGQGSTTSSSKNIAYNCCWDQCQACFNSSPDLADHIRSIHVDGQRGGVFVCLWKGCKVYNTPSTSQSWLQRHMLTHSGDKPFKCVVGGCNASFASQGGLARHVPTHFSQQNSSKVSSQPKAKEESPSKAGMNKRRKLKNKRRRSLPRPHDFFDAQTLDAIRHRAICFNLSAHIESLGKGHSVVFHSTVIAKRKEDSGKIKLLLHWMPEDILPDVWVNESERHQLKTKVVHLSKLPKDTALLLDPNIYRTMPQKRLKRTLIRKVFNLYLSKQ
T1 sequence (O75530 whole entry): as the sequence (O75530 whole entry) above

In general, IC50 refers to the concentration at which inhibition is half-maximal. Consider `COc1cccc(F)c1CNc1ccc(-c2ccnn2C2CC2)c2nncn12` [Example 292, 8-(1-cyclopropyl-1H-pyrazol-5-yl)-N-(2-fluoro-6-methoxybenzyl)-[1,2,4] triazolo[4,3-a]pyridin-5-amine], for which the IC50 came to 11.4 nM in assay [1], 195 nM in assay [2] and 29 nM at EED (1-441)-His protein.

Turning to `COc1cccc(F)c1CNc1ccc(-c2ccc(S(C)(=O)=O)nc2C(F)F)c2nncn12` [Example 293, 8-(2-(difluoromethyl)-6-(methylsulfonyl)pyridin-3-yl)-N-(2-fluoro-6-methoxybenzyl)-[1,2,4] triazolo[4,3-a]pyridin-5-amine], the results for the IC50 (in assay [1]; in assay [2]; at EED (1-441)-His protein) were 10.6 nM, 20.1 nM and 31.4 nM, respectively.

With `COc1cccc(F)c1CNc1ccc(-c2cccnc2CF)c2nncn12` [Example 294, N-(2-fluoro-6-methoxybenzyl)-8-(2-(fluoromethyl)pyridin-3-yl)-[1,2,4] triazolo[4,3-a]pyridin-5-amine], the IC50 in assay [1] was found to be 9.4 nM; in assay [2] it was 116 nM; on EED (1-441)-His protein it was 23.9 nM.

For `COc1cc(F)cc(F)c1CNc1ccc(-c2ccc(C(=O)N(C)C)cc2C)c2nncn12` [Example 295, 4-(5-((2,4-difluoro-6-methoxybenzyl)amino)-[1,2,4]triazolo[4,3-a]pyridin-8-yl)-N,N,3-trimethyl benzamide], the IC50 in assay [1] amounted to 12.4 nM; in assay [2], 321 nM; on EED (1-441)-His protein it was 30.7 nM.

As to `COc1cc(F)cc(F)c1CNc1ccc(-c2ccnn2C)c2nncn12` [Example 296, N-(2,4-difluoro-6-methoxybenzyl)-8-(1-methyl-1H-pyrazol-5-yl)-[1,2,4] triazolo[4,3-a]pyridin-5-amine], the IC50 turned out to be 5.1 nM in assay [1], 126 nM in assay [2] and 13 nM on EED (1-441)-His protein.

As to `COc1cc(F)cc(F)c1CNc1ccc(-c2ccncc2C)c2nncn12` [Example 297, N-(2,4-difluoro-6-methoxybenzyl)-8-(3-methylpyridin-4-yl)-[1,2,4]triazolo[4,3-a] pyridin-5-amine], the IC50 in assay [1] was 17.5 nM; in assay [2] it was 618 nM; on EED (1-441)-His protein, 42.3 nM.

With `CCc1ncccc1-c1ccc(NCc2c(F)cc(F)cc2OC)n2cnnc12` [Example 298, N-(2,4-difluoro-6-methoxybenzyl)-8-(2-ethylpyridin-3-yl)-[1,2,4]triazolo[4,3-a] pyridin-5-amine], the IC50 in assay [1] stood at 86.9 nM; in assay [2], 362 nM; at EED (1-441)-His protein it was 67.9 nM.

For the compound `COc1cc(F)cc(F)c1CNc1ccc(-c2cncnc2C)c2nncn12` [Example 299, N-(2,4-difluoro-6-methoxybenzyl)-8-(4-methylpyrimidin-5-yl)-[1,2,4] triazolo[4,3-a]pyridin-5-amine], the IC50 in assay [1] came to 11.9 nM; in assay [2] it was 66.6 nM; at EED (1-441)-His protein it was 27.6 nM.

As for `COc1cccc(F)c1CNc1ccc(-c2cnc(S(C)(=O)=O)cc2C(F)F)c2nncn12` [Example 301, 8-(4-(difluoromethyl)-6-(methylsulfonyl)pyridin-3-yl)-N-(2-fluoro-6-methoxybenzyl)-[1,2,4]triazolo[4,3-a] pyridin-5-amine], the IC50 was 6.4 nM in assay [1], 93.4 nM in assay [2] and 23.7 nM at EED (1-441)-His protein.

For `COc1cc(F)cc(F)c1CNc1ccc(-c2cccnc2C(F)F)c2nncn12` [Example 302, N-(2,4-difluoro-6-methoxybenzyl)-8-(2-(difluoromethyl)pyridin-3-yl)-[1,2,4]triazolo[4,3-a]pyridin-5-amine], the figures for the IC50 (in assay [1]; in assay [2]; on EED (1-441)-His protein) were 9.8 nM, 39.3 nM and 13.3 nM, respectively.

Consider `COc1cccc(F)c1CNc1ccc(-c2cccnc2CO)c2nncn12` [Example 303, (3-(5-((2-fluoro-6-methoxy benzyl)amino)-[1,2,4]triazolo[4,3-a]pyridin-8-yl)pyridin-2-yl)methanol], for which the IC50 in assay [1] worked out at 15.5 nM; in assay [2], 20.4 nM; at EED (1-441)-His protein, 27.6 nM.

For `COc1cccc(F)c1CNc1ccc(-c2cnc(OC(F)F)cc2C)c2nncn12` [Example 304, 8-(6-(difluoromethoxy)-4-methylpyridin-3-yl)-N-(2-fluoro-6-methoxybenzyl)-[1,2,4]triazolo[4,3-a]pyridin-5-amine], the half-inhibitory concentration (IC50) in assay [1] worked out at 18 nM; in assay [2], 48.3 nM; at EED (1-441)-His protein it was 26.6 nM.

On to `COc1cccc(F)c1CNc1ccc(-c2cc(C)ncc2C)c2nncn12` [Example 305, 8-(2,5-dimethylpyridin-4-yl)-N-(2-fluoro-6-methoxybenzyl)-[1,2,4]triazolo[4,3-a] pyridin-5-amine], for which the IC50 was 28.2 nM in assay [1], 94.6 nM in assay [2] and 52.6 nM on EED (1-441)-His protein.

`COc1cccc(F)c1CNc1ccc(-c2cc(C(F)F)ncc2C)c2nncn12` [Example 306, 8-(2-(difluoromethyl)-5-methylpyridin-4-yl)-N-(2-fluoro-6-methoxybenzyl)-[1,2,4]triazolo[4,3-a]pyridin-5-amine]: the IC50 in assay [1] stood at 15.5 nM; in assay [2], 41.8 nM; at EED (1-441)-His protein, 30.9 nM.

With `COc1cc(C)c(-c2ccc(NCc3c(F)cccc3OC)n3cnnc23)cn1` [Example 308, N-(2-fluoro-6-methoxybenzyl)-8-(6-methoxy-4-methylpyridin-3-yl)-[1,2,4] triazolo[4,3-a]pyridin-5-amine], the IC50 in assay [1] stood at 17.4 nM; in assay [2], 117 nM; on EED (1-441)-His protein, 18.6 nM.

Take `COc1cccc(F)c1CNc1ccc(-c2ccc(O)nc2C)c2nncn12` [Example 309, 5-(5-((2-fluoro-6-methoxybenzyl)amino)-[1,2,4]triazolo[4,3-a]pyridin-8-yl)-6-methylpyridin-2-ol]: the IC50 in assay [1] stood at 11.6 nM; in assay [2] it was 60.6 nM; on EED (1-441)-His protein, 15.8 nM.

`COc1ccc(-c2ccc(NCc3c(F)cccc3OC)n3cnnc23)c(C)n1` [Example 310, N-(2-fluoro-6-methoxybenzyl)-8-(6-methoxy-2-methylpyridin-3-yl)-[1,2,4] triazolo[4,3-a]pyridin-5-amine]: the IC50 stood at 16.6 nM in assay [1], 56.1 nM in assay [2] and 13.6 nM at EED (1-441)-His protein.

`COc1cccc(F)c1CNc1ccc(-c2cn(CCO)nc2C(F)(F)F)c2nncn12` [Example 312, 2-(4-(5-((2-fluoro-6-methoxybenzyl)amino)-[1,2,4]triazolo[4,3-a]pyridin-8-yl)-3-(trifluoromethyl)-1H-pyrazol-1-yl)ethanol]: the IC50 turned out to be 22.5 nM in assay [1], 171 nM in assay [2] and 31.2 nM on EED (1-441)-His protein.

In the case of `COc1cccc(F)c1CNc1ccc(-c2cn(C)nc2C(F)F)c2nncn12` [Example 313, 8-(3-(difluoromethyl)-1-methyl-1H-pyrazol-4-yl)-N-(2-fluoro-6-methoxybenzyl)-[1,2,4]triazolo[4,3-a]pyridin-5-amine], the concentration for half-maximal inhibition (IC50) is 4 nM in assay [1], 14.7 nM in assay [2] and 3.4 nM at EED (1-441)-His protein.

For the compound `COc1cc(F)cc(F)c1CNc1ccc(-c2ccc(C)nc2C(F)F)c2nncn12` [Example 314, N-(2,4-difluoro-6-methoxybenzyl)-8-(2-(difluoromethyl)-6-methylpyridin-3-yl)-[1,2,4]triazolo [4,3-a]pyridin-5-amine], the IC50 was 18.6 nM in assay [1], 110 nM in assay [2] and 22.3 nM on EED (1-441)-His protein.

For `COc1cccc(F)c1CNc1ccc(-c2ccc(C)nc2C(F)F)c2nncn12` [Example 315, 8-(2-(difluoromethyl)-6-methylpyridin-3-yl)-N-(2-fluoro-6-methoxybenzyl)-[1,2,4]triazolo[4,3-a]pyridin-5-amine], the IC50 in assay [1] stood at 7.8 nM; in assay [2], 21.5 nM; at EED (1-441)-His protein, 7.7 nM.

Take `COc1cccc(F)c1CNc1ccc(-c2cnc(C)cc2C(F)F)c2nncn12` [Example 316, 8-(4-(difluoromethyl)-6-methylpyridin-3-yl)-N-(2-fluoro-6-methoxybenzyl)-[1,2,4]triazolo[4,3-a]pyridin-5-amine]: the IC50 in assay [1] amounted to 17.3 nM; in assay [2] it was 215 nM; at EED (1-441)-His protein, 15.7 nM.

`COc1cc(F)cc(F)c1CNc1ccc(-c2cnc(C)cc2C(F)F)c2nncn12` [Example 317, N-(2,4-difluoro-6-methoxybenzyl)-8-(4-(difluoromethyl)-6-methylpyridin-3-yl)-[1,2,4]triazolo [4,3-a]pyridin-5-amine]: the IC50 in assay [1] was determined as 53.2 nM; in assay [2] it was 218 nM; on EED (1-441)-His protein it was 35.6 nM.

As to `COc1ccc(-c2ccc(NCc3c(F)cc(F)cc3OC)n3cnnc23)c(C)n1` [Example 319, N-(2,4-difluoro-6-methoxybenzyl)-8-(6-methoxy-2-methylpyridin-3-yl)-[1,2,4] triazolo[4,3-a]pyridin-5-amine], the IC50 in assay [1] came out at 40.7 nM; in assay [2] it was 130 nM; at EED (1-441)-His protein, 28.5 nM.

(Values after US10689378B2, “Triazolopyridine compounds and uses thereof” (Novartis AG, priority 2016, dated 2020).)
